Here are results for 35 compounds from ChEMBL document CHEMBL4842347, “Structure-activity relationship and biochemical evaluation of novel fibroblast activation protein and prolyl endopeptidase inhibitors with α-ketoamide warheads” (Eur J Med Chem, 2021).

Usually IC50 stands for the concentration at which inhibition is half-maximal.

The test system of one test is CCRF-CEM. As to the kind of experiment: Cytotoxicity against human CCRF-CEM cells assessed as reduction in cell viability incubated for 72 hrs measured by […]-based colorimetric assay. It is filed as functional.
Another test has as its system HepG2. Description: Cytotoxicity against human HepG2 cells assessed as reduction in cell viability incubated for 72 hrs measured by […]-based colorimetric assay. In kind it is functional.
The subject of the next test is HeLa. Description: Cytotoxicity against human HeLa cells assessed as reduction in cell viability incubated for 72 hrs measured by […]-based colorimetric assay. It is filed as functional.
The test system of the next test is HL-60. Description: Cytotoxicity against human HL-60 cells assessed as reduction in cell viability incubated for 72 hrs measured by […]-based colorimetric assay. In kind it is functional.
Another test addresses Dipeptidyl peptidase 4 (Homo sapiens, UniProt P27487). As to the kind of experiment: Inhibition of SF-tagged DPP4 (unknown origin) expressed in Drosophila S2 cells using fluorogenic substrate by spectrometric analysis. It is filed as cell-based.
A short description of test [1]: Inhibition of PREP (unknown origin) using fluorogenic substrate by spectrometric assay. Also on record: species or system Homo sapiens.

Active and inactive are the calls of the source. No cut-off for these calls is given here. Some results are limits rather than exact numbers.

Sequence of Dipeptidyl peptidase 4 (P27487 whole entry): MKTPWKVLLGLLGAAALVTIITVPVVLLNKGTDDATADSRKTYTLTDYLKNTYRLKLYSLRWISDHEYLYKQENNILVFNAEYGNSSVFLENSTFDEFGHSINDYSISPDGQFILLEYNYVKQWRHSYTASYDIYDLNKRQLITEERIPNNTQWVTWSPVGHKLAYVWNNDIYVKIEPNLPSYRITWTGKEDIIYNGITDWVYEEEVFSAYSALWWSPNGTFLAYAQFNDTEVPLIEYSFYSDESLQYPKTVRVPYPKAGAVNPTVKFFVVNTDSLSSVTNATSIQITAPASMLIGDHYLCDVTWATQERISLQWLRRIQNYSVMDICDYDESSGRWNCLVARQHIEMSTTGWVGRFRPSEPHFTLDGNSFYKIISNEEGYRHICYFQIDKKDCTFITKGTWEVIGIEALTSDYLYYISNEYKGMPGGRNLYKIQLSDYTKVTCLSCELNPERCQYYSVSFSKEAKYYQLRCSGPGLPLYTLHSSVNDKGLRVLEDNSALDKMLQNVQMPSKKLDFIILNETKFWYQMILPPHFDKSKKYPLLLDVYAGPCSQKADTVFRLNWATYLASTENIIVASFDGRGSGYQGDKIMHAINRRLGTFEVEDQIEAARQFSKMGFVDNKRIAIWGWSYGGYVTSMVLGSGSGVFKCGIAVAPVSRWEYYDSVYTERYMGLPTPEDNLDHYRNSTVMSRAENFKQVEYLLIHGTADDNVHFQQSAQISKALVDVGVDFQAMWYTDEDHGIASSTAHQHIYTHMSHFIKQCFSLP

For `COC(=O)[C@H](CC(=O)OCc1ccccc1)NC(=O)CNC(=O)C(=O)[C@@H]1CCCN1C(=O)CNC(=O)c1ccnc2ccccc12`, the outcome in the test with CCRF-CEM, in the test on HepG2, in the test with HeLa and with HL-60 was inactive.

As for `O=C(NC12CC3CC(CC(C3)C1)C2)C(=O)[C@@H]1CCCN1C(=O)CNC(=O)c1ccnc2ccccc12`, the outcome with CCRF-CEM, in the test on HepG2, in the test on HeLa and in the test with HL-60 was inactive.

For the compound `COC(=O)[C@H](CC(C)C)NC(=O)CNC(=O)C(=O)[C@@H]1CCCN1C(=O)CNC(=O)c1ccnc2ccccc12`, the result in the test on CCRF-CEM, with HepG2, in the test with HeLa and in the test on HL-60 was inactive.

With `O=C(NC1CC1)C(=O)[C@@H]1CCCN1C(=O)CNC(=O)c1ccnc2ccccc12`, the outcome in the test with CCRF-CEM, in the test with HepG2, with HeLa and in the test on HL-60 was inactive.

Turning to `COC(=O)[C@H](CCC(=O)NCc1ccccc1)NC(=O)CNC(=O)C(=O)[C@@H]1CCCN1C(=O)CNC(=O)c1ccnc2ccccc12`, the result in the test with CCRF-CEM, with HepG2, in the test on HeLa and in the test on HL-60 was inactive.

As to `CCCCCCNC(=O)CNC(=O)C(=O)[C@@H]1CCCN1C(=O)CNC(=O)c1ccnc2ccccc12`, the result with CCRF-CEM, in the test with HepG2, in the test on HeLa and in the test on HL-60 was inactive.

With `COc1cccc(CNC(=O)C(=O)[C@@H]2CCCN2C(=O)CNC(=O)c2ccnc3ccccc23)c1`, the result in the test with CCRF-CEM, in the test with HepG2, in the test with HeLa and with HL-60 was inactive.

For the compound `COC(=O)[C@H](CCCCN)NC(=O)CNC(=O)C(=O)[C@@H]1CCCN1C(=O)CNC(=O)c1ccnc2ccccc12`, the outcome with CCRF-CEM, with HepG2, in the test with HeLa and with HL-60 was inactive.

Regarding `COc1ccc(NC(=O)C(=O)[C@@H]2CCCN2C(=O)CNC(=O)c2ccnc3ccccc23)cc1`, the result with CCRF-CEM, in the test with HepG2, in the test with HeLa and in the test with HL-60 was inactive.

Consider `O=C(CNC(=O)C(=O)[C@@H]1CCCN1C(=O)CNC(=O)c1ccnc2ccccc12)NCc1ccccc1`, for which the outcome in the test on CCRF-CEM, in the test with HepG2, with HeLa and with HL-60 was inactive.

For `COc1ccc(CNC(=O)CNC(=O)C(=O)[C@@H]2CCCN2C(=O)CNC(=O)c2ccnc3ccccc23)cc1OC`, the result in the test on CCRF-CEM, in the test with HepG2, in the test on HeLa and in the test with HL-60 was inactive.

Consider `CNC(=O)CNC(=O)C(=O)[C@@H]1CCCN1C(=O)CNC(=O)c1ccnc2ccccc12`, for which the result with CCRF-CEM, in the test on HepG2, in the test on HeLa and in the test with HL-60 was inactive.

`COC(=O)[C@H](CCC(=O)O)NC(=O)CNC(=O)C(=O)[C@@H]1CCCN1C(=O)CNC(=O)c1ccnc2ccccc12`: the results for the IC50 (at Dipeptidyl peptidase 4; in test [1]) were > 4000 nM and 1.3 nM, respectively. Further, the result in the test with CCRF-CEM, with HepG2, in the test on HeLa and in the test with HL-60 was inactive.

Turning to `N#C[C@@H]1CCCN1C(=O)CNC(=O)c1ccnc2ccccc12`, the IC50 against Dipeptidyl peptidase 4 was > 4000 nM; in test [1], 320 nM.

`CC(C)(C)CNC(=O)C(=O)[C@@H]1CCCN1C(=O)CNC(=O)c1ccnc2ccccc12`: the outcome with CCRF-CEM, with HepG2, in the test on HeLa and in the test with HL-60 was inactive.

With `CCCCCNC(=O)C(=O)[C@@H]1CCCN1C(=O)CNC(=O)c1ccnc2ccccc12`, inhibition in test [1] was half-maximal at 0.4 nM (IC50). Moreover, the outcome in the test on CCRF-CEM, with HepG2, with HeLa and with HL-60 was inactive.

Consider `COC(=O)CNC(=O)C(=O)[C@@H]1CCCN1C(=O)CNC(=O)c1ccnc2ccccc12`, for which the result with CCRF-CEM, with HepG2, with HeLa and in the test with HL-60 was inactive.

In the case of `CC(C)NC(=O)CNC(=O)C(=O)[C@@H]1CCCN1C(=O)CNC(=O)c1ccnc2ccccc12`, the result in the test on CCRF-CEM, in the test with HepG2, with HeLa and in the test on HL-60 was inactive.

In turn, `N#C[C@@H]1CC(F)(F)CN1C(=O)CNC(=O)c1ccnc2ccccc12` yielded an IC50 in test [1] of 310 nM.

For the compound `O=C(NCC(=O)N1CCCC1)C(=O)[C@@H]1CCCN1C(=O)CNC(=O)c1ccnc2ccccc12`, the result in the test with CCRF-CEM, with HepG2, in the test on HeLa and in the test on HL-60 was inactive.

For the compound `COC(=O)[C@H](CO)NC(=O)CNC(=O)C(=O)[C@@H]1CCCN1C(=O)CNC(=O)c1ccnc2ccccc12`, the outcome in the test with CCRF-CEM, with HepG2, in the test on HeLa and in the test with HL-60 was inactive.

With `O=C(NCCc1ccccc1)C(=O)[C@@H]1CCCN1C(=O)CNC(=O)c1ccnc2ccccc12`, the outcome in the test with CCRF-CEM, with HepG2, in the test on HeLa and in the test with HL-60 was inactive.

On to `CN(C)C(=O)CNC(=O)C(=O)[C@@H]1CCCN1C(=O)CNC(=O)c1ccnc2ccccc12`, for which the result in the test with CCRF-CEM, in the test on HepG2, with HeLa and with HL-60 was inactive.

As to `COC(=O)C(NC(=O)C(=O)[C@@H]1CCCN1C(=O)CNC(=O)c1ccnc2ccccc12)C(C)C` (stereo partly drawn), the outcome in the test on CCRF-CEM, with HepG2, in the test on HeLa and in the test with HL-60 was inactive.

With `COC(=O)C(C)NC(=O)C(=O)[C@@H]1CCCN1C(=O)CNC(=O)c1ccnc2ccccc12` (mixture of isomers), the outcome in the test on CCRF-CEM, in the test on HepG2, in the test on HeLa and in the test on HL-60 was inactive.

As for `CCOC(=O)CNC(=O)C(=O)[C@@H]1CCCN1C(=O)CNC(=O)c1ccnc2ccccc12`, the outcome in the test on CCRF-CEM, in the test on HepG2, in the test with HeLa and with HL-60 was inactive.

Take `COC(=O)CNC(=O)CNC(=O)C(=O)[C@@H]1CCCN1C(=O)CNC(=O)c1ccnc2ccccc12`: the result with CCRF-CEM, with HepG2, in the test on HeLa and in the test on HL-60 was inactive.

For the compound `O=C(NC1CCCCC1)C(=O)[C@@H]1CCCN1C(=O)CNC(=O)c1ccnc2ccccc12`, the result with CCRF-CEM, in the test on HepG2, in the test with HeLa and in the test with HL-60 was inactive.

`O=C(CNC(=O)C(=O)[C@@H]1CCCN1C(=O)CNC(=O)c1ccnc2ccccc12)NC1CC1`: the result in the test on CCRF-CEM, in the test with HepG2, with HeLa and in the test on HL-60 was inactive.

Regarding `COC(=O)c1ccc(NC(=O)C(=O)[C@@H]2CCCN2C(=O)CNC(=O)c2ccnc3ccccc23)cc1`, the result in the test on CCRF-CEM, with HepG2, with HeLa and with HL-60 was inactive.

In the case of `O=C(NC(c1ccccc1)c1ccccc1)C(=O)[C@@H]1CCCN1C(=O)CNC(=O)c1ccnc2ccccc12`, the result with CCRF-CEM, with HepG2, in the test on HeLa and with HL-60 was inactive.

With `O=CCNC(=O)CNC(=O)C(=O)[C@@H]1CCCN1C(=O)CNC(=O)c1ccnc2ccccc12`, the result in the test on CCRF-CEM, with HepG2, in the test with HeLa and in the test with HL-60 was inactive.

For `COC(=O)[C@H](CCC(N)=O)NC(=O)CNC(=O)C(=O)[C@@H]1CCCN1C(=O)CNC(=O)c1ccnc2ccccc12`, the result in the test with CCRF-CEM, in the test with HepG2, with HeLa and in the test with HL-60 was inactive.

With `CC(C)NC(=O)C(=O)[C@@H]1CCCN1C(=O)CNC(=O)c1ccnc2ccccc12`, the result in the test on CCRF-CEM, in the test on HepG2, in the test on HeLa and in the test on HL-60 was inactive.

As to `COc1ccc(CNC(=O)C(=O)[C@@H]2CCCN2C(=O)CNC(=O)c2ccnc3ccccc23)cc1`, the outcome in the test on CCRF-CEM, in the test on HepG2, with HeLa and in the test with HL-60 was inactive.
